Data as given in patent publication US11919901B2 (Syndax Pharmaceuticals, Inc., priority 2021, dated 2024).

Tested on: MV4-11 cells
Assay: Cell proliferation assay MV4;11 (CellTiter-Glo, 72 hours)
Assay type: cell-based
Details: Homo sapiens; MV4;11 leukemia cell line, 72 hours; read-out: MV4; 11 IC50
Procedure: Compounds were evaluated for its capacity to inhibit the proliferation of the MLLr leukemia cell line MV4-11 that harbors an MLL1-AF4 fusion protein. MV4-11 cells were cultured for 72 hours with limiting dilutions of compounds and viability was measured using CellTiter-Glo.
Compounds were dissolved to obtain as 10 mM solution in DMSO. The stock was diluted 1:5 to the top concentration of 2 mM in 100% DMSO. For IC50 determination, serial 1:3.16 dilutions were prepared in 100% DMSO by diluting 20 μL into 43.5 μL of DMSO for 8 concentrations. Each prepared DMSO solution were further diluted 1:500 in the cell culture media to obtain the 2× dosing solutions. The final concentrations of tested compounds in the cell culture media ranged from 0.632 nM to 2000 nM.
MV4-11 cells were cultured in IMDM with 10% FBS and 1× Penicillin-Streptomycin at 5% CO2 and 37° C. A cell suspension was prepared containing 15,000 cells/ml in the culture medium and 100 μL of this suspension was added per well to a 96-well cell culture plate. Then, 100 μL of 2× dosing media containing test compounds were added bringing the total volume to 200 μL. These cells were cultured for 72 hours at 37° C. and 5% CO2 in a humidified incubator.
After 72 hours, the cultured cells were mixed and 100p L was transferred to a 96-well black plate. Cell Titer Glo (100 μl) was then added to this plate. The plate was mixed with shaking for 15 mins at RT, the luminescence was then measured using Tecan Spark 20M spectrophotometer. Cell Viability (%) was determined by RLU of test/RLU average vehicle control*100 and % max inhibition was determined by 100−(% cell viability remaining at the top concentration of compound).

Compound | IC50
CCN(C(=O)c1cc(F)ccc1Oc1cncnc1N1CC2(CCN(C[C@@H]3CC[C@@H](NC(=O)NCC(F)(F)F)CO3)CC2)C1)C(C)C [Example 37, N-Ethyl-5-fluoro-N-isopropyl-2-((4-(7-(((2S,5R)-5-(3-(2,2,2-trifluoroethyl)ureido)tetrahydro-2H-pyran-2-yl)methyl)-2,7-diazaspiro[3.5]nonan-2-yl)pyrimidin-5-yl)oxy)benzamide] | < 100 nM
CCCNC(=O)N[C@@H]1CC[C@@H](CN2CCC3(CC2)CN(c2ncncc2Oc2ccc(F)cc2C(=O)N(CC)C(C)C)C3)OC1 [Example 38, N-Ethyl-5-fluoro-N-isopropyl-2-((4-(7-(((2S,5R)-5-(3-propylureido)tetrahydro-2H-pyran-2-yl)methyl)-2,7-diazaspiro[3.5]nonan-2-yl)pyrimidin-5-yl)oxy)benzamide] | 100 to 1000 nM
CCNC(=O)N[C@@H]1CC[C@@H](CN2CCC3(CC2)CN(c2ncncc2Oc2ccc(F)cc2C(=O)N(CC)C(C)C)C3)OC1 [Example 39, N-Ethyl-2-((4-(7-(((2S,5R)-5-(3-ethylureido)tetrahydro-2H-pyran-2-yl)methyl)-2,7-diazaspiro[3.5]nonan-2-yl)pyrimidin-5-yl)oxy)-5-fluoro-N-isopropylbenzamide] | < 100 nM
C[C@H]1COCCN1C(=O)c1cc(F)ccc1Oc1cncnc1N1CC2(CCN(C[C@@H]3CC[C@@H](NS(=O)(=O)C4CC4)CO3)CC2)C1 [Example 40, N-((3R,6S)-6-((2-(5-(4-Fluoro-2-((S)-3-methylmorpholine-4-carbonyl)phenoxy)pyrimidin-4-yl)-2,7-diazaspiro[3.5]nonan-7-yl)methyl)tetrahydro-2H-pyran-3-yl)cyclopropanesulfonamide] | 100 to 1000 nM
CCN(C(=O)c1cc(F)ccc1Oc1cncnc1N1CC2(CCN(C[C@@H]3CC[C@@H](NC(=O)NCC(F)F)CO3)CC2)C1)C(C)C [Example 41, 2-((4-(7-(((2S,5R)-5-(3-(2,2-Difluoroethyl)ureido)tetrahydro-2H-pyran-2-yl)methyl)-2,7-diazaspiro[3.5]nonan-2-yl)pyrimidin-5-yl)oxy)-N-ethyl-5-fluoro-N-isopropylbenzamide] | 100 to 1000 nM
CCN(C(=O)c1cc(F)ccc1Oc1cncnc1N1CC2(CCN(C[C@@H]3CC[C@@H](NC(=O)NCC4CC4)CO3)CC2)C1)C(C)C [Example 42, 2-((4-(7-(((2S,5R)-5-(3-(Cyclopropylmethyl)ureido)tetrahydro-2H-pyran-2-yl)methyl)-2,7-diazaspiro[3.5]nonan-2-yl)pyrimidin-5-yl)oxy)-N-ethyl-5-fluoro-N-isopropylbenzamide] | 100 to 1000 nM
CCS(=O)(=O)N[C@@H]1CC[C@@H](CN2CCC3(CC2)CN(c2ncncc2Oc2ccc(F)cc2C(=O)N(CCC#N)C(C)C)C3)OC1 [Example 43, N-(2-Cyanoethyl)-2-((4-(7-(((2S,5R)-5-(ethylsulfonamido)tetrahydro-2H-pyran-2-yl)methyl)-2,7-diazaspiro[3.5]nonan-2-yl)pyrimidin-5-yl)oxy)-5-fluoro-N-isopropylbenzamide] | 100 to 1000 nM
CCS(=O)(=O)N[C@@H]1CC[C@@H](CN2CCC3(CC2)CN(c2ncncc2Oc2ccc(F)cc2C(=O)N(C(C)C)C2CC(F)(F)C2)C3)OC1 [Example 44, N-(3,3-Difluorocyclobutyl)-2-((4-(7-(((2S,5R)-5-(ethylsulfonamido)tetrahydro-2H-pyran-2-yl)methyl)-2,7-diazaspiro[3.5]nonan-2-yl)pyrimidin-5-yl)oxy)-5-fluoro-N-isopropylbenzamide] | < 100 nM
CCN(C(=O)c1cc(F)ccc1Oc1cncnc1N1CC2(CCN(C[C@@H]3CC[C@@H](NS(=O)(=O)c4ccccc4)CO3)CC2)C1)C(C)C [Example 45, N-Ethyl-5-fluoro-N-isopropyl-2-((4-(7-(((2S,5R)-5-(phenylsulfonamido)tetrahydro-2H-pyran-2-yl)methyl)-2,7-diazaspiro[3.5]nonan-2-yl)pyrimidin-5-yl)oxy)benzamide] | < 100 nM
CCS(=O)(=O)N[C@@H]1CC[C@@H](CN2CCC3(CC2)CN(c2ncncc2Oc2ccc(F)cc2C(=O)N(C(C)C)[C@@H]2CCOC2)C3)OC1 [Example 46, 2-((4-(7-(((2S,5R)-5-(Ethylsulfonamido)tetrahydro-2H-pyran-2-yl)methyl)-2,7-diazaspiro[3.5]nonan-2-yl)pyrimidin-5-yl)oxy)-5-fluoro-N-isopropyl-N-((R)-tetrahydrofuran-3-yl)benzamide] | < 100 nM
CC(C)N(CC(F)F)C(=O)c1cc(F)ccc1Oc1cncnc1N1CC2(CCN(C[C@@H]3CC[C@@H](NS(=O)(=O)C4CC4)CO3)CC2)C1 [Example 47, 2-((4-(7-(((2S,5R)-5-(Cyclopropanesulfonamido)tetrahydro-2H-pyran-2-yl)methyl)-2,7-diazaspiro[3.5]nonan-2-yl)pyrimidin-5-yl)oxy)-N-(2,2-difluoroethyl)-5-fluoro-N-isopropylbenzamide] | < 100 nM
CCS(=O)(=O)N[C@@H]1CC[C@@H](CN2CCC3(CC2)CN(c2ncncc2Oc2ccc(F)cc2C(=O)N(C(C)C)C2COC2)C3)OC1 [Example 48, 2-((4-(7-(((2S,5R)-5-(Ethylsulfonamido)tetrahydro-2H-pyran-2-yl)methyl)-2,7-diazaspiro[3.5]nonan-2-yl)pyrimidin-5-yl)oxy)-5-fluoro-N-isopropyl-N-(oxetan-3-yl)benzamide] | < 100 nM
CCN(C(=O)c1cc(F)ccc1Oc1cncnc1N1CC2(CCN(C[C@@H]3CC[C@@H](NS(=O)(=O)N(C)C)CO3)CC2)C1)C(C)C [Example 49, 2-((4-(7-(((2S,5R)-5-((N,N-Dimethylsulfamoyl)amino)tetrahydro-2H-pyran-2-yl)methyl)-2,7-diazaspiro[3.5]nonan-2-yl)pyrimidin-5-yl)oxy)-N-ethyl-5-fluoro-N-isopropylbenzamide] | < 100 nM
COCCN(C(=O)c1cc(F)ccc1Oc1cncnc1N1CC2(CCN(C[C@@H]3CC[C@@H](NS(=O)(=O)C4CC4)CO3)CC2)C1)C(C)C [Example 51, 2-((4-(7-(((2S,5R)-5-(Cyclopropanesulfonamido)tetrahydro-2H-pyran-2-yl)methyl)-2,7-diazaspiro[3.5]nonan-2-yl)pyrimidin-5-yl)oxy)-5-fluoro-N-isopropyl-N-(2-methoxyethyl)benzamide] | < 100 nM
CCN(C(=O)c1cc(F)ccc1Oc1cncnc1N1CC2(CCN(C[C@@H]3CC[C@@H](NS(=O)(=O)c4ccc(C)cc4)CO3)CC2)C1)C(C)C [Example 55, N-Ethyl-5-fluoro-N-isopropyl-2-((4-(7-(((2S,5R)-5-((4-methylphenyl)sulfonamido)tetrahydro-2H-pyran-2-yl)methyl)-2,7-diazaspiro[3.5]nonan-2-yl)pyrimidin-5-yl)oxy)benzamide] | < 100 nM
CCN(C(=O)c1cc(F)ccc1Oc1cncnc1N1CC2(CCN(C[C@@H]3CC[C@@H](NS(=O)(=O)c4ccccc4C)CO3)CC2)C1)C(C)C [Example 56, N-Ethyl-5-fluoro-N-isopropyl-2-((4-(7-(((2S,5R)-5-((2-methylphenyl)sulfonamido)tetrahydro-2H-pyran-2-yl)methyl)-2,7-diazaspiro[3.5]nonan-2-yl)pyrimidin-5-yl)oxy)benzamide] | < 100 nM
CCN(C(=O)c1cc(F)ccc1Oc1cncnc1N1CC2(CCN(C[C@@H]3CC[C@@H](NS(=O)(=O)c4cccc(Cl)c4)CO3)CC2)C1)C(C)C [Example 57, 2-((4-(7-(((2S,5R)-5-((3-Chlorophenyl)sulfonamido)tetrahydro-2H-pyran-2-yl)methyl)-2,7-diazaspiro[3.5]nonan-2-yl)pyrimidin-5-yl)oxy)-N-ethyl-5-fluoro-N-isopropylbenzamide] | < 100 nM
CCN(C(=O)c1cc(F)ccc1Oc1cncnc1N1CC2(CCN(C[C@@H]3CC[C@@H](NS(=O)(=O)c4ccccn4)CO3)CC2)C1)C(C)C [Example 58, N-ethyl-5-fluoro-N-isopropyl-2-((4-(7-(((2S,5R)-5-(pyridine-2-sulfonamido)tetrahydro-2H-pyran-2-yl)methyl)-2,7-diazaspiro[3.5]nonan-2-yl)pyrimidin-5-yl)oxy)benzamide] | < 100 nM
CCN(C(=O)c1cc(F)ccc1Oc1cncnc1N1CC2(CCN(C[C@@H]3CC[C@@H](NS(=O)(=O)c4ccccc4Cl)CO3)CC2)C1)C(C)C [Example 59, 2-((4-(7-(((2S,5R)-5-((2-Chlorophenyl)sulfonamido)tetrahydro-2H-pyran-2-yl)methyl)-2,7-diazaspiro[3.5]nonan-2-yl)pyrimidin-5-yl)oxy)-N-ethyl-5-fluoro-N-isopropylbenzamide] | < 100 nM
CCN(C(=O)c1cc(F)ccc1Oc1cncnc1N1CC2(CCN(C[C@@H]3CC[C@@H](NS(=O)(=O)c4cccc(C)c4)CO3)CC2)C1)C(C)C [Example 60, N-ethyl-5-fluoro-N-isopropyl-2-((4-(7-(((2S,5R)-5-((3-methylphenyl)sulfonamido)tetrahydro-2H-pyran-2-yl)methyl)-2,7-diazaspiro[3.5]nonan-2-yl)pyrimidin-5-yl)oxy)benzamide] | < 100 nM
